How the values were obtained:
Gli-Luc/MEF cells = assay: Gli-Luc/MEF assay; type: cell-based, mouse; conditions: Shh-stimulated luciferase, 48 hours
How it was run: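 Shh-stimulated luciferase readout (Bright-Glo) after 48 h, 37 °C, 5% CO2, used to derive IC50 of inhibition. Gli-Luc transgenic mouse MEFs received test compounds at final […] in 3-fold dilutions, with recombinant mouse Shh added immediately at final 2 μg/mL.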

human Smo = human Smo (Homo sapiens (Human), UniProt Q99835); assay: Smo radioligand competition binding assay; conditions: for inhibition at 0.05 µM: read-out: Smo % inh. @ 0.05 μM
human Smo, sequence (Q99835 181-787): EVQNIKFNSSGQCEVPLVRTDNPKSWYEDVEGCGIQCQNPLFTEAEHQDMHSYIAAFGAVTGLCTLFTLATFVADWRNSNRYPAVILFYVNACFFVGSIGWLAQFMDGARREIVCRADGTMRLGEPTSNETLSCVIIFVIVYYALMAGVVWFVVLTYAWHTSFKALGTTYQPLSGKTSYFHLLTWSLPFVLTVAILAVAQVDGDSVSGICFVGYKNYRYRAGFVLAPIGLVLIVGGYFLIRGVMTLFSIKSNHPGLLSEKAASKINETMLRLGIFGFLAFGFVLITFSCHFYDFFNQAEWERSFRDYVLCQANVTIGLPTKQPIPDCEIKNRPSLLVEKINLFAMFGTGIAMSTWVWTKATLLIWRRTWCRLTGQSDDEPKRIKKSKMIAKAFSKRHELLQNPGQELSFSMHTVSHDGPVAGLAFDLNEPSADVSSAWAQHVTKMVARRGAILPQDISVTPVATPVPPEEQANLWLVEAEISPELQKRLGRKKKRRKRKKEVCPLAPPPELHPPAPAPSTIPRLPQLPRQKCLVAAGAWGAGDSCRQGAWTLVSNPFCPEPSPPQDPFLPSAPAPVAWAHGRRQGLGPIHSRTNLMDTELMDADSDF
How it was run: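 Membranes from HEK293 cells expressing surface human Smo 181-781 (40 μg protein/well) incubated 2 h at room temperature with test compound and tritiated Smo antagonist (3 nM), pH 7.5 Tris buffer; filtration and scintillation counting. Non-specific binding defined with 30 μM cold antagonist; IC50 from four-parameter sigmoidal fit.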

Compound	IC50 (Gli-Luc/MEF cells; Mus musculus, MEF)	IC50 (human Smo)	inhibition at 0.05 µM (human Smo; 0.05 μM test compound)	IC50 (Gli-Luc/MEF cells)	Smo % inh. @ 0.05 μM (human Smo; 0.05 μM test compound)
Cc1cccnc1-c1cc(N2CCC(C(=O)N[C@@H]3CCCC[C@H]3O)CC2)ncc1Cl [Example A-81, 1-(5′-chloro-3-methyl-2,4′-bipyridin-2′-yl)-N-[(1R,2R)-2-hydroxycyclohexyl]piperidine-4-carboxamide]	15.7 nM	32.6 nM	97.9%		
Cc1cnc(-c2cc(N3CCN(C(=O)CN(C)C)CC3)ncc2Cl)c(C)c1 [Example A-105, 2-[4-(5′-chloro-3,5-dimethyl-2,4′-bipyridin-2′-yl)piperazin-1-yl]-N,N-dimethyl-2-oxoethanamine]	12.3 nM	82.4 nM	84.5%		
CS(=O)(=O)NC1CCN(c2ncc(Cl)c(-c3ccccn3)c2F)CC1 [Example A-138, N-(1-(5′-chloro-3′-fluoro-2,4′-bipyridin-2′-yl)piperidin-4-yl)methanesulfonamide]	29.4 nM	84.6 nM	80.5%		
COc1ccccc1CNC(=O)C1CCN(c2cc(-c3ncccc3C)c(Cl)cn2)CC1 [Example A-79, 1-(5′-chloro-3-methyl-2,4′-bipyridin-2′-yl)-N-(2-methoxybenzyl)piperidine-4-carboxamide]	30.5 nM	161 nM	78.4%		
O=S(=O)(NC1CCN(c2ccc(Cl)c(-c3ccccn3)n2)CC1)C1CC1 [Example A-133, N-[1-(3-chloro-2,2′-bipyridin-6-yl)piperidin-4-yl]cyclopropanesulfonamide]	11.7 nM		94.3%		
Cc1cccnc1-c1cc(N2CCC(C(=O)NCc3ncc[nH]3)CC2)ncc1Cl [Example A-54, 1-(5′-chloro-3-methyl-2,4′-bipyridin-2′-yl)-N-(1H-imidazol-2-ylmethyl)piperidine-4-carboxamide]	55.4 nM	64.9 nM	86.1%		
CCS(=O)(=O)NC1CCN(c2cc(-c3ncc(C)cc3C)c(Cl)cn2)CC1 [Example A-121, N-[1-(5′-chloro-3,5-dimethyl-2,4′-bipyridin-2′-yl)piperidin-4-yl]ethanesulfonamide]	4.25 nM	11.6 nM	101%		
Cc1cccnc1-c1cc(N2CCN(S(C)(=O)=O)CC2)ncc1Cl [Example A-22, 5′-chloro-3-methyl-2′-[4-(methylsulfonyl)piperazin-1-yl]-2,4′-bipyridine]	42 nM	110 nM	81.5%		
Cc1cccnc1-c1cc(N2CCC(C(=O)NC3(CO)CCCC3)CC2)ncc1Cl [Example A-76, 1-(5′-chloro-3-methyl-2,4′-bipyridin-2′-yl)-N-[1-(hydroxymethyl)cyclopentyl]piperidine-4-carboxamide]	18.3 nM	25.8 nM	91.6%		
Cc1cccnc1-c1cc(N2CCC(C(=O)NC3CCS(=O)(=O)CC3)CC2)ncc1Cl [Example A-80, 1-(5′-chloro-3-methyl-2,4′-bipyridin-2′-yl)-N-(1,1-dioxidotetrahydro-2H-thiopyran-4-yl)piperidine-4-carboxamide]	16.5 nM	33.6 nM	101%		
CCS(=O)(=O)NC1CCN(c2ccc(Cl)c(-c3ccccn3)n2)CC1 [Example A-132, N-[1-(3-chloro-2,2′-bipyridin-6-yl)piperidin-4-yl]ethanesulfonamide]	33.7 nM	38.2 nM	92%		
N-[(3-endo)-8-(5′-chloro-3-methyl-2,4′-bipyridin-2′-yl)-8-azabicyclo[3.2.1]oct-3-yl]methanesulfonamide [Example A-124]		100 nM		25.3 nM	79.9%
Cc1cccnc1-c1cc(N2CCC(C(=O)NCC3(O)CCC3)CC2)ncc1Cl [Example A-64, 1-(5′-chloro-3-methyl-2,4′-bipyridin-2′-yl)-N-[(1-hydroxycyclobutyl)methyl]piperidine-4-carboxamide]	109 nM	157 nM	78.1%		
Cc1cccnc1-c1cc(N2CCN(C(=O)C(C)C)CC2)ncc1Cl [Example A-44, 5′-chloro-2′-(4-isobutyrylpiperazin-1-yl)-3-methyl-2,4′-bipyridine]	80.2 nM	128 nM	82.9%		
Cc1cc(F)cnc1-c1nc(N2CCC(NS(C)(=O)=O)CC2)ccc1Cl [Example A-154, N-[1-(3-chloro-5′-fluoro-3′-methyl-2,2′-bipyridin-6-yl)piperidin-4-yl]methanesulfonamide]	39.5 nM	29.2 nM	94.3%		
Cc1cccnc1-c1cc(N2CCC(C(=O)NC3CCCCC3O)CC2)ncc1Cl (centres unmarked) [Example A-72, 1-(5′-chloro-3-methyl-2,4′-bipyridin-2′-yl)-N-(2-hydroxycyclohexyl)piperidine-4-carboxamide]	22.5 nM	28.3 nM	96.3%		
Cc1cccnc1-c1nc(N2CCC(NS(C)(=O)=O)CC2)ncc1Cl [Example A-34, N-{1-[5-chloro-4-(3-methylpyridin-2-yl)pyrimidin-2-yl]piperidin-4-yl}methanesulfonamide]	20.9 nM	24.4 nM	94.8%		
Cc1ccc(-c2nc(N3CCC(NS(C)(=O)=O)CC3)ccc2Cl)nc1 [Example A-117, N-[1-(3-chloro-5′-methyl-2,2′-bipyridin-6-yl)piperidin-4-yl]methanesulfonamide]	11 nM	17 nM	96%		
CN(C)CC(=O)NC1CCN(c2ccc(Cl)c(-c3ccccn3)n2)CC1 [Example A-129, N-(1-(3-chloro-[2,2′-bipyridin]-6-yl)piperidin-4-yl)-2-(dimethylamino)acetamide]	8.12 nM	54.3 nM	88.4%		
COCCC(=O)NC1CCN(c2cc(-c3ncccc3C)c(Cl)cn2)CC1 [Example A-27, N-[1-(5′-chloro-3-methyl-2,4′-bipyridin-2′-yl)piperidin-4-yl]-3-methoxypropanamide]	21.1 nM	107 nM	75.7%		
Cc1cccnc1-c1cc(N2CCC(NC(=O)CC(C)(C)O)CC2)ncc1Cl [Example A-52, N-(1-(5′-chloro-3-methyl-[2,4′-bipyridin]-2′-yl)piperidin-4-yl)-3-hydroxy-3-methylbutanamide]	28 nM	54.3 nM	90.6%		
COCCS(=O)(=O)N1CCN(c2ccc(Cl)c(-c3ccccn3)n2)CC1 [Example A-136, 3-chloro-6-{4-[(2-methoxyethyl)sulfonyl]piperazin-1-yl}-2,2′-bipyridine]	117 nM	328 nM	58.8%		
Cc1ccc(-c2nc(N3CCC(NS(C)(=O)=O)CC3)ncc2Cl)nc1 [Example A-119, N-{1-[5-chloro-4-(5-methylpyridin-2-yl)pyrimidin-2-yl]piperidin-4-yl}methanesulfonamide]	22.9 nM	58.9 nM	88.5%		
Cc1cc(F)cnc1-c1cc(N2CCC(NS(=O)(=O)CCO)CC2)ncc1Cl [Example A-149, N-[1-(5′-chloro-5-fluoro-3-methyl-2,4′-bipyridin-2′-yl)piperidin-4-yl]-2-hydroxyethanesulfonamide]	10.1 nM	20.7 nM	90.6%		

Reference: patent US9056865B2, “Pyridine-2-derivatives as smoothened receptor modulators” (Pfizer Inc., priority 2010, dated 2015)
